From patent US9035085B2, “Aryl ketone compounds and compositions for delivering active agents” (EMISPHERE TECHNOLOGIES, INC., priority 2004, dated 2015) come the findings set out here.

Structures are written as SMILES.

This experiment can be described thus: Insulin oral delivery in rats (blood glucose). The format is in vivo, Male Sprague-Dawley rats. The settings on record: delivery agent 200 mg/kg with insulin 0.50 mg/kg, 1 ml/kg. The source says: The typical dosing and sampling protocols were as follows.
Regarding `O=C(O)CCC(=O)c1ccccc1` [Compound 1, 4-Oxo-4-phenyl-butyric acid], the “% Change in Glucose (from control)” value is on record as −30.7%.

On to `COc1ccc(C(=O)CCC(=O)O)cc1` [Compound 5, 4-(4-Methoxy-phenyl)-4-oxo-butyric acid], for which the “% Change in Glucose (from control)” value is given as −12.1%.

Regarding `COc1ccc(C(=O)CCCC(=O)O)cc1` [Compound 6, 5-(4-Methoxy-phenyl)-5-oxo-pentanoic acid], the “% Change in Glucose (from control)” value is given as −18.3%.

Take `O=C(O)CCCC(=O)c1ccccc1` [Compound 8]: the “% Change in Glucose (from control)” value is reported as −1.3%.

Regarding `COc1c(C)cc(C(=O)CCCCC(=O)O)cc1C` [Compound 10], the “% Change in Glucose (from control)” value is listed as −13.5%.

For `COc1ccccc1C(=O)CCC(=O)O` [Compound 12], the “% Change in Glucose (from control)” value is reported as −2.3%.

Take `COc1ccc(C(=O)CCCCC(=O)O)cc1` [Compound 14]: the “% Change in Glucose (from control)” value is −2.0%.

For `Cc1ccc(C(=O)CCCCC(=O)O)cc1C` [Compound 16], the “% Change in Glucose (from control)” value is −25.1%.

For the compound `Cc1ccc(C(=O)CCC(=O)O)cc1C` [Compound 17], the “% Change in Glucose (from control)” value is recorded as −9.5%.

Consider `Cc1ccc(C)c(C(=O)CCC(=O)O)c1` [Compound 19], for which the “% Change in Glucose (from control)” value is −28.3%.

As for `Cc1cc(C)cc(C(=O)CCCCCCC(=O)O)c1` [Compound 20], the “% Change in Glucose (from control)” value is −6.6%.

Turning to `O=C(O)CCCCC(=O)c1cc(Cl)ccc1Cl` [Compound 21], the “% Change in Glucose (from control)” value is recorded as −40.8%.

As to `O=C(O)CCC(=O)c1cc(Cl)ccc1Cl` [Compound 22], the “% Change in Glucose (from control)” value was −16.3%.

For the compound `Cc1cc(C)cc(C(=O)CCCCC(=O)O)c1` [Compound 23], the “% Change in Glucose (from control)” value is listed as −7.5%.

Regarding `O=C(O)CCCCCCC(=O)c1ccccc1` [Compound 25], the “% Change in Glucose (from control)” value is given as −20.8%.

As for `O=C(O)CCCCCC(=O)c1ccccc1` [Compound 28], the “% Change in Glucose (from control)” value is −26.4%.

Take `CCc1ccc(C(=O)CCC(=O)O)cc1` [Compound 29]: the “% Change in Glucose (from control)” value was −35.4%.

For `O=C(O)CCC(=O)c1ccc(F)cc1F` [Compound 30], the “% Change in Glucose (from control)” value is −10.5%.

Turning to `CCCCCCOc1ccc(C(=O)CCC(=O)O)cc1` [Compound 34], the “% Change in Glucose (from control)” value was 9.4%.

As to `O=C(O)CCC(=O)c1cc(F)ccc1F` [Compound 35], the “% Change in Glucose (from control)” value is −11.8%.

Regarding `O=C(O)CCCC(=O)c1ccc(Cl)cc1` [Compound 36], the “% Change in Glucose (from control)” value is listed as −31.9%.

For `O=C(O)CCCCC(=O)c1cc(F)cc(F)c1` [Compound 37], the “% Change in Glucose (from control)” value is −39.0%.

On to `Cc1ccc(C(=O)CCC(=O)O)cc1` [Compound 38], for which the “% Change in Glucose (from control)” value is listed as −26.9%.

Take `O=C(O)CCCC(=O)c1ccc(Oc2ccccc2)cc1` [Compound 40]: the “% Change in Glucose (from control)” value was −3.9%.

For `O=C(O)CCCC(=O)c1cccc(Oc2ccccc2)c1` [Compound 41], the “% Change in Glucose (from control)” value is given as −16.5%.

In the case of `O=C(O)CCCCCC(=O)c1cccc(Oc2ccccc2)c1` [Compound 42], the “% Change in Glucose (from control)” value was −13.8%.
